Data taken from patent publication US8557741B2, “3-aminocarbonyl-substituted benzoylcyclohexanediones and their use as herbicides” (Bayer CropScience AG, priority 2010, dated 2013).
Like-named read-outs stand apart in the source and are kept apart here.

Assays:
Type in all cases: in vivo
[1] = system: SETVI; experiment: Pre-emergence herbicidal action against harmful plants; conditions: dosage 320 g/ha, visual assessment after 3 weeks (Table C)
Excerpt: (§1) Seeds of monocotyledonous and dicotyledonous weed plants and crop plants are placed in wood-fibre pots in sandy loam and covered with soil. The compounds according to the invention and the compounds known from the prior art, formulated in the form of wettable powders (WP) or as emulsion concentrates (EC), are then applied as aqueous suspension or emulsion at a water application rate of 600 to 800 I/ha (converted) with the addition of 0.2% of wetting agent to the surface of the covering soil. After the treatment, the pots are placed in a greenhouse and kept under good growth conditions for the test plants. The visual assessment of the damage to the test plants is carried out after a trial period of 3 weeks by comparison with untreated controls (herbicidal activity in percent (%): 100% activity=the plants have died, 0% activity=like control plants, —=not tested). The results of comparative table A show the compounds according to the invention have a higher herbicidal activity than the compounds of the greatest structural similarity known from the closest prior art.

[2] = system: VIOTR; experiment: as above; conditions: dosage 320 g/ha, visual assessment after 3 weeks (Table C)
Excerpt: as §1

[3] = system: Matricaria inodora; experiment: as above; conditions: dosage 320 g/ha; for pest or weed control at 320 g/ha: Tripleurospermum inodorum, 504 h, read-out: Herbicidal action against MATIN
Excerpt: as §1, with “The abbreviations used in the tables below denote: • ABUTH Abutilon theophrasti • AMARE Amaranthus retroflexus • ECHCG Echinochloa crus galli • PHBPU Phartoitis purpureum • STEME Stellaria media • ALOMY Alopecurus myosuroides • AVEFA Avena fatua • MATIN Matricaria inodora • POLCO Fallopia convolvulus • VERPE Veronica persica 1. Pre-emergence Herbicidal Action Against Harmful Plants Seeds” for “Seeds”

[4] = system: Stellaria media; experiment: as above; conditions: 504 h, dosage 320 g/ha, visual assessment after 3 weeks (Table A), read-out: Herbicidal action against STEME
Excerpt: as §1, with “The abbreviations used in the tables below denote: • ABUTH Abutilon theophrasti • AMARE Amaranthus retroflexus • ECHCG Echinochloa crus galli • PHBPU Phartoitis purpureum • STEME Stellaria media • ALOMY Alopecurus myosuroides • AVEFA Avena fatua • MATIN Matricaria inodora • POLCO Fallopia convolvulus • VERPE Veronica persica 1. Pre-emergence Herbicidal Action Against Harmful Plants Seeds” for “Seeds”

[5] = system: Echinochloa crus galli; experiment: as above; conditions: dosage 320 g/ha; for pest or weed control at 320 g/ha: Echinochloa, 504 h, read-out: Herbicidal action against ECHCG
Excerpt: as §1, with “The abbreviations used in the tables below denote: • ABUTH Abutilon theophrasti • AMARE Amaranthus retroflexus • ECHCG Echinochloa crus galli • PHBPU Phartoitis purpureum • STEME Stellaria media • ALOMY Alopecurus myosuroides • AVEFA Avena fatua • MATIN Matricaria inodora • POLCO Fallopia convolvulus • VERPE Veronica persica 1. Pre-emergence Herbicidal Action Against Harmful Plants Seeds” for “Seeds”

[6] = system: Phartoitis purpureum; experiment: as above; conditions: dosage 320 g/ha; for Herbicidal action against PHPBU: visual assessment after 3 weeks (Table C); for Herbicidal action against PHBPU: visual assessment after 3 weeks (Table A)
Excerpt: as §1, with “The abbreviations used in the tables below denote: • ABUTH Abutilon theophrasti • AMARE Amaranthus retroflexus • ECHCG Echinochloa crus galli • PHBPU Phartoitis purpureum • STEME Stellaria media • ALOMY Alopecurus myosuroides • AVEFA Avena fatua • MATIN Matricaria inodora • POLCO Fallopia convolvulus • VERPE Veronica persica 1. Pre-emergence Herbicidal Action Against Harmful Plants Seeds” for “Seeds”

[7] = system: Veronica persica; experiment: as above; conditions: 504 h, dosage 320 g/ha, visual assessment after 3 weeks (Table A), read-out: Herbicidal action against VERPE
Excerpt: as §1, with “The abbreviations used in the tables below denote: • ABUTH Abutilon theophrasti • AMARE Amaranthus retroflexus • ECHCG Echinochloa crus galli • PHBPU Phartoitis purpureum • STEME Stellaria media • ALOMY Alopecurus myosuroides • AVEFA Avena fatua • MATIN Matricaria inodora • POLCO Fallopia convolvulus • VERPE Veronica persica 1. Pre-emergence Herbicidal Action Against Harmful Plants Seeds” for “Seeds”

[8] = system: Amaranthus retroflexus; experiment: as above; conditions: 504 h, dosage 320 g/ha, read-out: Herbicidal action against AMARE
Excerpt: as §1, with “The abbreviations used in the tables below denote: • ABUTH Abutilon theophrasti • AMARE Amaranthus retroflexus • ECHCG Echinochloa crus galli • PHBPU Phartoitis purpureum • STEME Stellaria media • ALOMY Alopecurus myosuroides • AVEFA Avena fatua • MATIN Matricaria inodora • POLCO Fallopia convolvulus • VERPE Veronica persica 1. Pre-emergence Herbicidal Action Against Harmful Plants Seeds” for “Seeds”

[9] = system: Abutilon theophrasti; experiment: as above; conditions: dosage 320 g/ha; for pest or weed control at 320 g/ha: Abutilon theophrasti, 504 h, read-out: Herbicidal action against ABUTH
Excerpt: as §1, with “The abbreviations used in the tables below denote: • ABUTH Abutilon theophrasti • AMARE Amaranthus retroflexus • ECHCG Echinochloa crus galli • PHBPU Phartoitis purpureum • STEME Stellaria media • ALOMY Alopecurus myosuroides • AVEFA Avena fatua • MATIN Matricaria inodora • POLCO Fallopia convolvulus • VERPE Veronica persica 1. Pre-emergence Herbicidal Action Against Harmful Plants Seeds” for “Seeds”

[10] = system: Matricaria inodora; experiment: Post-emergence herbicidal action against harmful plants; conditions: Tripleurospermum inodorum, 504 h, dosage 80 g/ha, read-out: Herbicidal action against MATIN
Excerpt: (§2) The abbreviations used in the tables below denote: • ABUTH Abutilon theophrasti • AMARE Amaranthus retroflexus • ECHCG Echinochloa crus galli • PHBPU Phartoitis purpureum • STEME Stellaria media • ALOMY Alopecurus myosuroides • AVEFA Avena fatua • MATIN Matricaria inodora • POLCO Fallopia convolvulus • VERPE Veronica persica 1. Pre-emergence Herbicidal Action Against Harmful Plants Seeds of monocotyledonous and dicotyledonous weed and crop plants are placed in sandy loam in wood-fibre pots, covered with soil and cultivated in a greenhouse under good growth conditions. 2 to 3 weeks after sowing, the test plants are treated at the one-leaf stage. The compounds according to the invention, formulated in the form of wettable powders (WP) or as emulsion concentrates (EC), are then sprayed as aqueous suspension or emulsion at a water application rate of 600 to 800 I/ha (converted) with the addition of 0.2% of wetting agent onto the green parts of the plants. After the test plants have been kept in the greenhouse under optimum growth conditions for about 3 weeks, the activity of the preparations is rated visually in comparison to untreated controls (herbicidal activity in percent (%): 100% activity=the plants have died, 0% activity=control plants, —=not tested).

[11] = system: Fallopia convolvulus; experiment: as above; conditions: 504 h, dosage 80 g/ha, read-out: Herbicidal action against POLCO
Excerpt: as §2

[12] = system: Echinochloa crus galli; experiment: as above; conditions: 504 h, dosage 80 g/ha, read-out: Herbicidal action against ECHCG
Excerpt: as §2

[13] = system: Phartoitis purpureum; experiment: as above; conditions: 504 h, dosage 80 g/ha
Excerpt: as §2

[14] = system: VIOTR; experiment: as above; conditions: dosage 80 g/ha, visual rating after about 3 weeks (Table E)
Experimental: as §2, with “Seeds” for “The abbreviations used in the tables below denote: • ABUTH Abutilon theophrasti • AMARE Amaranthus retroflexus • ECHCG Echinochloa crus galli • PHBPU Phartoitis purpureum • STEME Stellaria media • ALOMY Alopecurus myosuroides • AVEFA Avena fatua • MATIN Matricaria inodora • POLCO Fallopia convolvulus • VERPE Veronica persica 1. Pre-emergence Herbicidal Action Against Harmful Plants Seeds”

[15] = system: Alopecurus myosuroides; experiment: Pre-emergence herbicidal action against harmful plants; conditions: dosage 320 g/ha, visual assessment after 3 weeks (Table A)
Excerpt: as §1, with “The abbreviations used in the tables below denote: • ABUTH Abutilon theophrasti • AMARE Amaranthus retroflexus • ECHCG Echinochloa crus galli • PHBPU Phartoitis purpureum • STEME Stellaria media • ALOMY Alopecurus myosuroides • AVEFA Avena fatua • MATIN Matricaria inodora • POLCO Fallopia convolvulus • VERPE Veronica persica 1. Pre-emergence Herbicidal Action Against Harmful Plants Seeds” for “Seeds”

[16] = system: Avena fatua; experiment: as above; conditions: dosage 320 g/ha, visual assessment after 3 weeks (Table A)
Excerpt: as §1, with “The abbreviations used in the tables below denote: • ABUTH Abutilon theophrasti • AMARE Amaranthus retroflexus • ECHCG Echinochloa crus galli • PHBPU Phartoitis purpureum • STEME Stellaria media • ALOMY Alopecurus myosuroides • AVEFA Avena fatua • MATIN Matricaria inodora • POLCO Fallopia convolvulus • VERPE Veronica persica 1. Pre-emergence Herbicidal Action Against Harmful Plants Seeds” for “Seeds”

[17] = system: Stellaria media; experiment: Post-emergence herbicidal action against harmful plants; conditions: 504 h, dosage 80 g/ha, visual rating after about 3 weeks (Table D), read-out: Herbicidal action against STEME
Excerpt: as §2

[18] = system: Avena fatua; experiment: as above; conditions: dosage 80 g/ha, visual rating after about 3 weeks (Table D)
Excerpt: as §2

[19] = system: Veronica persica; experiment: as above; conditions: 504 h, dosage 80 g/ha, visual rating after about 3 weeks (Table D), read-out: Herbicidal action against VERPE
Excerpt: as §2

[20] = system: Amaranthus retroflexus; experiment: as above; conditions: 504 h, dosage 80 g/ha, visual rating after about 3 weeks (Table D), read-out: Herbicidal action against AMARE
Excerpt: as §2

[21] = visual assessment after 3 weeks (Table A)
[22] = visual assessment after 3 weeks (Table C)
[23] = visual rating after about 3 weeks (Table E)
[24] = visual rating after about 3 weeks (Table E), read-out: Herbicidal action against PHPBU
[25] = visual rating after about 3 weeks (Table D)
[26] = visual rating after about 3 weeks (Table D), read-out: Herbicidal action against PHBPU

Compound	Herbicidal action against SETVI [1]	Herbicidal action against VIOTR [2]	pest or weed control at 320 g/ha [3, 21]	pest or weed control at 320 g/ha [4]	pest or weed control at 320 g/ha [5, 21]	Herbicidal action against PHPBU [6]	pest or weed control at 320 g/ha [7]	pest or weed control at 320 g/ha [8, 22]	pest or weed control at 320 g/ha [9, 21]	pest or weed control at 80 g/ha [10, 23]	pest or weed control at 80 g/ha [11, 23]	pest or weed control at 80 g/ha [12, 23]	pest or weed control at 80 g/ha [13, 24]	Herbicidal action against VIOTR [14]	Herbicidal action against ALOMY [15]	Herbicidal action against PHBPU [6]	Herbicidal action against AVEFA [16]	pest or weed control at 320 g/ha [8, 21]	pest or weed control at 80 g/ha [10, 25]	pest or weed control at 80 g/ha [11, 25]	further results
CCS(=O)(=O)c1ccc(C(=O)C2=C(O)CCCC2=O)c(C(F)(F)F)c1OCC(=O)N(C)OC [Compound E8]	90%	100%	100%	100%	100%	90%	100%	100%	100%	90%	90%	90%	80%	90%	–	–	–	–	–	–	Herbicidal action against MATIN [3, 22]: 100%; Herbicidal action against ECHCG [5, 22]: 100%; Herbicidal action against ABUTH [9, 22]: 100%
CN(C)C(=O)COc1c(Cl)ccc(C(=O)C2=C(O)CCCC2=O)c1Cl [Compound S1, reference compound]	–	–	100%	80%	30%	–	70%	–	90%	–	–	–	–	–	40%	40%	20%	60%	100%	60%	pest or weed control at 80 g/ha [17]: 70%; pest or weed control at 80 g/ha [12, 25]: 50%; pest or weed control at 80 g/ha [13, 26]: 70%; Herbicidal action against AVEFA [18]: 50%; pest or weed control at 80 g/ha [19]: 70%; pest or weed control at 80 g/ha [20]: 80%
CCS(=O)(=O)c1ccc(C(=O)C2=C(O)CCCC2=O)c(Cl)c1OCC(=O)N(C)OC [Compound S8, reference compound]	50%	20%	–	–	–	70%	–	90%	–	60%	80%	80%	80%	80%	–	–	–	–	–	–	pest or weed control at 320 g/ha [3, 22]: 90%; pest or weed control at 320 g/ha [5, 22]: 60%; pest or weed control at 320 g/ha [9, 22]: 90%
CN(C)C(=O)COc1c(Cl)ccc(C(=O)C2=C(O)CCCC2=O)c1C(F)(F)F [Compound E1]	–	–	100%	90%	100%	–	100%	–	100%	–	–	–	–	–	100%	80%	90%	100%	100%	100%	pest or weed control at 80 g/ha [17]: 90%; pest or weed control at 80 g/ha [12, 25]: 90%; pest or weed control at 80 g/ha [13, 26]: 90%; Herbicidal action against AVEFA [18]: 80%; pest or weed control at 80 g/ha [19]: 90%; pest or weed control at 80 g/ha [20]: 80%
